ChEMBL document CHEMBL1156236, “Trypanoside, anti-tuberculosis, leishmanicidal, and cytotoxic activities of tetrahydrobenzothienopyrimidines” (Bioorg Med Chem, 2010)

Legend:
OVCAR-4 = experiment: Cytotoxicity against human OVCAR4 cells; assay type: functional
SR = experiment: Cytotoxicity against human SR cells; assay type: functional
EKVX = experiment: Cytotoxicity against human EKVX cells; assay type: functional
A549 = experiment: Cytotoxicity against human A549 cells; assay type: functional
MDA-MB-231 = experiment: Cytotoxicity against human MDA-MB-231 cells; assay type: functional
OVCAR-8 = experiment: Cytotoxicity against human OVCAR8 cells; assay type: functional
MCF7 = experiment: Cytotoxicity against human MCF7 cells; assay type: functional
SK-MEL-2 = experiment: Cytotoxicity against human SK-MEL-2 cells; assay type: functional
HCT-15 = experiment: Cytotoxicity against human HCT15 cells; assay type: functional
COLO 205 = experiment: Cytotoxicity against human COLO205 cells; assay type: functional
A498 = experiment: Cytotoxicity against human A498 cells; assay type: functional
CCRF-CEM = experiment: Cytotoxicity against human CCRF-CEM cells; assay type: functional
IGROV-1 = experiment: Cytotoxicity against human IGROV1 cells; assay type: functional
Leishmania amazonensis = experiment: Antileishmanial activity against Leishmania amazonensis Lma CL1 amastigotes infected BALB/c mouse macrophages after 48 hrs by Giemsa staining method; assay type: functional, organism-based; details: Lma CL1, 48 h
SNB-19 = experiment: Cytotoxicity against human SNB19 cells; assay type: functional
[1] = Selectivity index, ratio of IC50 for BALB/c mouse macrophages to IC50 for Leishmania amazonensis MHOM/BR/76/LTB-012
NCI-H522 = experiment: Cytotoxicity against human NCI-H522 cells; assay type: functional
HT-29 = experiment: Cytotoxicity against human HT-29 cells; assay type: functional
[2] = Cytotoxicity against human […] cells; assay type: functional
PC-3 = experiment: Cytotoxicity against human PC3 cells; assay type: functional
SF-539 = experiment: Cytotoxicity against human SF539 cells; assay type: functional
SF-268 = experiment: Cytotoxicity against human SF268 cells; assay type: functional
SNB-75 = experiment: Cytotoxicity against human SNB75 cells; assay type: functional
T47D = experiment: Cytotoxicity against human T47D cells; assay type: functional
NCI-H460 = experiment: Cytotoxicity against human NCI-H460 cells; assay type: functional
MOLT-4 = experiment: Cytotoxicity against human MOLT4 cells; assay type: functional
[3] = read-out: LC50 (the source's name)

Q: With `C(=N\Nc1ncnc2sc3c(c12)CCCC3)/c1ccccn1` as the molecule, how does the GI50 (OVCAR-4) read?
A: 0.431 µM

Q: What about the TGI (OVCAR-4) of the same molecule?
A: 26.3 µM

Q: And the CC50 (OVCAR-4; [3])?
A: > 0.1 µM

Q: And the GI50 (SR)?
A: 0.368 µM

Q: And the TGI (SR)?
A: 0.953 µM

Q: And the CC50 (SR; [3])?
A: > 100 µM

Q: And the GI50 (EKVX)?
A: 0.317 µM

Q: What about the TGI (EKVX) of the same molecule?
A: 20.5 µM

Q: And the CC50 (EKVX; [3])?
A: > 100 µM

Q: What about the GI50 (A549) of the same molecule?
A: 0.389 µM

Q: What about the TGI (A549) of the same molecule?
A: 14.9 µM

Q: And the CC50 (A549; [3])?
A: 70 µM

Q: What about the GI50 (MDA-MB-231) of the same molecule?
A: 0.603 µM

Q: What about the TGI (MDA-MB-231) of the same molecule?
A: 29.7 µM

Q: And the CC50 (MDA-MB-231; [3])?
A: > 100 µM

Q: And the GI50 (OVCAR-8)?
A: 0.481 µM

Q: What about the TGI (OVCAR-8) of the same molecule?
A: > 1 µM

Q: What about the CC50 (OVCAR-8; [3]) of the same molecule?
A: > 0.1 µM

Q: What about the GI50 (MCF7) of the same molecule?
A: 0.09 µM

Q: And the TGI (MCF7)?
A: 15.3 µM

Q: And the CC50 (MCF7; [3])?
A: 80 µM

Q: What about the GI50 (SK-MEL-2) of the same molecule?
A: 7.51 µM

Q: And the TGI (SK-MEL-2)?
A: 25.5 µM

Q: What about the CC50 (SK-MEL-2; [3]) of the same molecule?
A: 67.8 µM

Q: What about the GI50 (HCT-15) of the same molecule?
A: 0.45 µM

Q: What about the TGI (HCT-15) of the same molecule?
A: 27 µM

Q: And the CC50 (HCT-15; [3])?
A: > 100 µM

Q: And the GI50 (COLO 205)?
A: 0.315 µM

Q: And the TGI (COLO 205)?
A: 14.7 µM

Q: And the CC50 (COLO 205; [3])?
A: 54.5 µM

Q: What about the GI50 (A498) of the same molecule?
A: 0.428 µM

Q: And the TGI (A498)?
A: 8.81 µM

Q: And the CC50 (A498; [3])?
A: 37.2 µM

Q: And the GI50 (CCRF-CEM)?
A: 0.242 µM

Q: What about the TGI (CCRF-CEM) of the same molecule?
A: 0.769 µM

Q: And the CC50 (CCRF-CEM; [3])?
A: > 100 µM

Q: What about the GI50 (IGROV-1) of the same molecule?
A: 0.45 µM

Q: And the TGI (IGROV-1)?
A: 28.9 µM

Q: What about the CC50 (IGROV-1; [3]) of the same molecule?
A: > 100 µM

Q: What about the IC50 (Leishmania amazonensis) of the same molecule?
A: > 2 µM

Q: And the GI50 (SNB-19)?
A: 0.767 µM

Q: And the TGI (SNB-19)?
A: 34.1 µM

Q: What about the CC50 (SNB-19; [3]) of the same molecule?
A: > 100 µM

Q: And the “Ratio IC50” value [1]?
A: 13

Q: What about the GI50 (NCI-H522) of the same molecule?
A: 0.419 µM

Q: And the TGI (NCI-H522)?
A: 23.2 µM

Q: What about the CC50 (NCI-H522; [3]) of the same molecule?
A: > 100 µM

Q: And the GI50 (HT-29)?
A: 0.1 µM

Q: And the LC50 (lethal concentration, 50% cell kill) (HT-29)?
A: 44.9 µM

Q: And the TGI (HT-29)?
A: 15.1 µM

Q: What about the GI50 [2] of the same molecule?
A: 0.35 µM

Q: And the TGI [2]?
A: 12.5 µM

Q: What about the CC50 [2, 3] of the same molecule?
A: > 100 µM

Q: And the GI50 (PC-3)?
A: 0.431 µM

Q: And the TGI (PC-3)?
A: 71.1 µM

Q: What about the CC50 (PC-3; [3]) of the same molecule?
A: > 100 µM

Q: And the GI50 (SF-539)?
A: 0.391 µM

Q: And the TGI (SF-539)?
A: 0.384 µM

Q: What about the CC50 (SF-539; [3]) of the same molecule?
A: 29.2 µM

Q: And the GI50 (SF-268)?
A: 0.356 µM

Q: What about the TGI (SF-268) of the same molecule?
A: 15.1 µM

Q: What about the CC50 (SF-268; [3]) of the same molecule?
A: 83 µM

Q: What about the GI50 (SNB-75) of the same molecule?
A: 0.585 µM

Q: And the TGI (SNB-75)?
A: 14.7 µM

Q: And the CC50 (SNB-75; [3])?
A: 49.3 µM

Q: What about the GI50 (T47D) of the same molecule?
A: 0.0764 µM

Q: And the TGI (T47D)?
A: 28 µM

Q: What about the CC50 (T47D; [3]) of the same molecule?
A: > 100 µM

Q: What about the GI50 (NCI-H460) of the same molecule?
A: 0.4 µM

Q: And the TGI (NCI-H460)?
A: 1.73 µM

Q: And the CC50 (NCI-H460; [3])?
A: 31.1 µM

Q: And the GI50 (MOLT-4)?
A: 0.261 µM

Q: What about the TGI (MOLT-4) of the same molecule?
A: 0.774 µM

Q: What about the CC50 (MOLT-4; [3]) of the same molecule?
A: > 100 µM
